Test results: patent US5089623A, “Certain imidate insecticides” (Imperial Chemical Industries Plc, priority 1990, dated 1992)

What was measured:
Assay type in all cases: in vivo
[1] = system: Maize weevil [Sitophilus Zeamais (Motschulsky)]; test: Maize weevil test (MW); conditions: adult weevils, treated corn seeds, 48 hours, percent in solution
In short: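 Adult weevils (10) were placed with four corn seeds that had been dipped 2-3 s in compound dissolved in 50:50 acetone:water, then dried, and held at about 25° C. Mortality was scored at 48 h. LC50 was taken from dosage-mortality curves and expressed as percent compound in solution, from a 0.01% top concentration.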

[2] = system: Housefly [Musca domestica]; test: Housefly insecticidal test (HF); conditions: per 25 female houseflies, 48 hours
[3] = system: Aster Leafhopper [Macrosteles fascifrens (Stal)]; test: Aster leafhopper test (LH); conditions: adults/nymphs, 48 hours, percent in solution
[4] = system: Cabbage Looper [Trichoplusia ni (Hubner)]; test: Cabbage looper test (CL); conditions: second-instar larvae, 3-5 days, percent in solution
[5] = system: Tobacco Budworm [Heliothis virescens (Fabricius)] eggs; test: Tobacco budworm egg test (TBW-E); conditions: percent in solution

CC(C)C(=Nc1ccc(F)c(Cl)c1)OCc1cccc(Oc2ccc(F)c(F)c2)c1 [Compound 217]
LC50 MW [1]: 0.0084%
LC50 HF [2]: 8 µg
LC50 LH [3]: > 0.05%
LC50 CL [4]: 0.00006%
LC50 TBW E [5]: 0.015%

Fc1ccc(N=C(OCc2cccc(Oc3ccccc3)c2)C(F)(F)C(F)(F)F)cc1Cl [Compound 117]
LC50 MW [1]: > 0.01%
LC50 HF [2]: 55 µg
LC50 LH [3]: 0.0003%
LC50 CL [4]: 0.006%
LC50 TBW E [5]: > 0.1%

Cc1ccc(N=C(OCc2ccc(F)c(Oc3ccccc3)c2)C(C)C)cc1Cl [Compound 356]
LC50 MW [1]: > 0.01%
LC50 HF [2]: < 100 µg
LC50 LH [3]: < 0.05%
LC50 CL [4]: > 0.1%
LC50 TBW E [5]: 0.025%

Cc1cccc(N=C(OCc2cccc(Oc3ccc(Cl)cc3)n2)C(C)C)c1 [Compound 545]
LC50 MW [1]: > 0.01%
LC50 HF [2]: < 100 µg
LC50 LH [3]: > 0.05%
LC50 CL [4]: > 0.1%
LC50 TBW E [5]: > 0.1%

CC(C)C(=Nc1ccc(F)c(Cl)c1)OCc1cc(Oc2ccc(Cl)cc2)ccn1 [Compound 516]
LC50 MW [1]: > 0.01%
LC50 HF [2]: > 100 µg
LC50 LH [3]: > 0.05%
LC50 CL [4]: 0.008%
LC50 TBW E [5]: > 0.1%

CC(C)C(=Nc1cccc(C(F)(F)F)c1)OCc1cccc(Nc2ccc(F)cc2)c1 [Compound 513]
LC50 MW [1]: > 0.01%
LC50 HF [2]: 81 µg
LC50 LH [3]: > 0.05%
LC50 CL [4]: 0.007%
LC50 TBW E [5]: > 0.1%

CCC(=Nc1ccc(Cl)cc1)OCc1cccc(Oc2ccccc2)c1 [Compound 11]
LC50 MW [1]: > 0.01%
LC50 HF [2]: 6 µg
LC50 LH [3]: > 0.05%
LC50 CL [4]: 0.025%
LC50 TBW E [5]: > 0.1%

CC(C)C(=Nc1cccc(Br)c1)OCc1cccc(Oc2ccccc2)c1 [Compound 128]
LC50 MW [1]: > 0.01%
LC50 HF [2]: 4.5 µg
LC50 LH [3]: 0.003%
LC50 CL [4]: 0.005%
LC50 TBW E [5]: 0.037%

CC(C)C(=Nc1ccc(Cl)c(Cl)c1)OCc1cccc(Nc2ccc(F)cc2)c1 [Compound 514]
LC50 MW [1]: > 0.01%
LC50 HF [2]: > 100 µg
LC50 LH [3]: > 0.05%
LC50 CL [4]: 0.008%
LC50 TBW E [5]: > 0.1%

CC(C)C(=Nc1ccc(Br)cc1F)OCc1cccc(Oc2ccc(F)cc2)c1 [Compound 351]
LC50 MW [1]: > 0.01%
LC50 HF [2]: 26 µg
LC50 LH [3]: > 0.05%
LC50 CL [4]: 0.0007%
LC50 TBW E [5]: > 0.1%

CC(C)C(=Nc1ccc(-c2ccccc2)cc1)OCc1cccc(Oc2ccccc2)c1 [Compound 186]
LC50 MW [1]: > 0.01%
LC50 HF [2]: > 100 µg
LC50 LH [3]: > 0.05%
LC50 CL [4]: 0.008%
LC50 TBW E [5]: > 0.1%

CC(C)C(=Nc1cc(Cl)ccc1Cl)OCc1cccc(Oc2ccccc2)c1 [Compound 13]
LC50 MW [1]: > 0.01%
LC50 HF [2]: > 100 µg
LC50 LH [3]: > 0.05%
LC50 CL [4]: 0.014%
LC50 TBW E [5]: > 0.1%

CC(C)(F)C(=Nc1ccc(F)c(Cl)c1)OCc1cc(Oc2ccc(F)cc2)ccc1F [Compound 316]
LC50 MW [1]: > 0.01%
LC50 HF [2]: 100 µg
LC50 LH [3]: > 0.05%
LC50 CL [4]: 0.0015%
LC50 TBW E [5]: > 0.1%

CC(C)C(=Nc1ccc(F)cc1)OCc1cccc(Oc2ccc(Br)cc2)c1 [Compound 259]
LC50 MW [1]: > 0.01%
LC50 HF [2]: 15 µg
LC50 LH [3]: > 0.05%
LC50 CL [4]: 0.0003%
LC50 TBW E [5]: 0.05%

CC(C)C(=Nc1ccc(F)c(Cl)c1)OCc1cccc(Cc2ccccc2)c1 [Compound 541]
LC50 MW [1]: > 0.01%
LC50 HF [2]: < 100 µg
LC50 LH [3]: > 0.05%
LC50 CL [4]: 0.001%
LC50 TBW E [5]: > 0.1%

CC(C)C(=Nc1ccc2c(c1)OCO2)OCc1cc(Oc2ccc(F)cc2)ccn1 [Compound 515]
LC50 MW [1]: > 0.01%
LC50 HF [2]: 28 µg
LC50 LH [3]: > 0.05%
LC50 CL [4]: 0.0015%
LC50 TBW E [5]: > 0.1%

CC(C)C(=Nc1ccc2c(c1)OCO2)OCc1cccc(Oc2ccc(Cl)cn2)c1 [Compound 532]
LC50 MW [1]: > 0.01%
LC50 HF [2]: > 100 µg
LC50 LH [3]: > 0.05%
LC50 CL [4]: < 0.1%
LC50 TBW E [5]: > 0.1%

C=C(C)C(=Nc1ccc(Cl)cc1)OCc1cccc(Oc2ccccc2)c1 [Compound 6]
LC50 MW [1]: > 0.01%
LC50 HF [2]: 17 µg
LC50 LH [3]: > 0.05%
LC50 CL [4]: 0.02%
LC50 TBW E [5]: 0.015%

Cc1cc(N=C(OCc2ccc(F)c(Oc3ccc(F)cc3)c2)C(C)C)ccc1Br [Compound 359]
LC50 MW [1]: > 0.01%
LC50 HF [2]: < 100 µg
LC50 LH [3]: 0.05%
LC50 CL [4]: > 0.1%
LC50 TBW E [5]: 0.023%

CC(C)C(=Nc1ccc(C#N)cc1)OCc1cccc(Oc2ccccc2)c1 [Compound 172]
LC50 MW [1]: > 0.01%
LC50 HF [2]: 5 µg
LC50 LH [3]: > 0.05%
LC50 CL [4]: 0.002%
LC50 TBW E [5]: 0.04%

C#CCc1c(F)c(F)c(COC(=Nc2ccc3c(c2)OCO3)C(C)C)c(F)c1F [Compound 547]
LC50 MW [1]: > 0.01%
LC50 HF [2]: < 100 µg
LC50 LH [3]: < 0.05%
LC50 CL [4]: 0.0005%
LC50 TBW E [5]: 0.05%

CSc1ccc(Oc2cccc(COC(=Nc3ccc(F)c(Cl)c3)C(C)C)c2)cc1 [Compound 256]
LC50 MW [1]: > 0.01%
LC50 HF [2]: > 100 µg
LC50 LH [3]: > 0.05%
LC50 CL [4]: 0.007%
LC50 TBW E [5]: 0.1%

CC(C)C(=Nc1ccc(F)c(Cl)c1)OCc1ccc(OCc2ccccc2)cc1 [Compound 475]
LC50 MW [1]: > 0.01%
LC50 HF [2]: > 100 µg
LC50 LH [3]: > 0.05%
LC50 CL [4]: 0.008%
LC50 TBW E [5]: > 0.1%

CC(=Nc1ccc(F)c(F)c1)OCc1coc(Cc2ccccc2)c1 [Compound 526]
LC50 MW [1]: > 0.01%
LC50 HF [2]: 8.3 µg
LC50 LH [3]: > 0.05%
LC50 CL [4]: > 0.01%
LC50 TBW E [5]: > 0.1%

CSc1ccc(N=C(OCc2cccc(Oc3ccccc3)c2)C(C)C)cc1 [Compound 142]
LC50 MW [1]: > 0.01%
LC50 HF [2]: 15 µg
LC50 LH [3]: > 0.05%
LC50 CL [4]: 0.005%
LC50 TBW E [5]: 0.1%

CC(C)C(=Nc1ccccc1)OCc1cccc(Oc2ccccc2)c1 [Compound 43]
LC50 MW [1]: > 0.01%
LC50 HF [2]: 7 µg
LC50 LH [3]: > 0.05%
LC50 CL [4]: 0.018%
LC50 TBW E [5]: 0.05%

CC(C)C(=Nc1ccc(OC(F)(F)F)cc1)OCc1cccc(Cc2ccccc2)c1 [Compound 542]
LC50 MW [1]: > 0.01%
LC50 HF [2]: > 100 µg
LC50 LH [3]: > 0.05%
LC50 CL [4]: > 0.01%
LC50 TBW E [5]: > 0.1%

CC(C)C(=Nc1ccc(F)c(Cl)c1)OCc1cccc(Oc2ccccn2)c1 [Compound 549]
LC50 MW [1]: > 0.01%
LC50 HF [2]: < 100 µg
LC50 LH [3]: > 0.05%
LC50 CL [4]: > 0.1%
LC50 TBW E [5]: > 0.1%

CC(C)C(=Nc1ccc2c(c1)OCO2)OCc1cccc(Oc2ccc(Cl)cc2)c1 [Compound 240]
LC50 MW [1]: > 0.01%
LC50 HF [2]: 14 µg
LC50 LH [3]: > 0.05%
LC50 CL [4]: 0.0003%
LC50 TBW E [5]: 0.04%

COc1cccc(N=C(OCc2cccc(Oc3ccccc3)c2)C(C)C)c1 [Compound 143]
LC50 MW [1]: > 0.01%
LC50 HF [2]: 10 µg
LC50 LH [3]: 0.006%
LC50 CL [4]: 0.002%
LC50 TBW E [5]: < 0.1%

CC(C)(F)C(=Nc1ccc(F)c(Cl)c1)OCc1cccc(Oc2ccc(F)cc2F)c1 [Compound 315]
LC50 MW [1]: > 0.01%
LC50 HF [2]: > 100 µg
LC50 LH [3]: > 0.05%
LC50 CL [4]: 0.002%
LC50 TBW E [5]: > 0.1%

Fc1ccc(N=C(OCc2cccc(Oc3ccccc3)c2)C(F)F)cc1 [Compound 50]
LC50 MW [1]: > 0.01%
LC50 HF [2]: 43 µg
LC50 LH [3]: > 0.05%
LC50 CL [4]: 0.02%
LC50 TBW E [5]: > 0.05%

C#CCc1c(F)c(F)c(COC(=Nc2cccc(C(F)(F)F)c2)C(C)C)c(F)c1F [Compound 546]
LC50 MW [1]: 0.0032%
LC50 HF [2]: < 100 µg
LC50 LH [3]: < 0.05%
LC50 CL [4]: 0.0001%
LC50 TBW E [5]: > 0.1%

CC(C)C(=Nc1ccccc1Cl)OCc1cccc(Oc2ccccc2)c1 [Compound 17]
LC50 MW [1]: > 0.01%
LC50 HF [2]: 75 µg
LC50 LH [3]: > 0.05%
LC50 CL [4]: 0.03%
LC50 TBW E [5]: > 0.1%

CCc1ccc(N=C(OCc2ccc(F)c(Oc3ccc(F)cc3)c2)C(C)C)cc1 [Compound 361]
LC50 MW [1]: > 0.01%
LC50 HF [2]: < 100 µg
LC50 LH [3]: < 0.05%
LC50 CL [4]: 0.001%
LC50 TBW E [5]: 0.04%

CC(C)C(=Nc1ccc(F)c(Cl)c1)OCC#CCOc1ccccc1 [Compound 534]
LC50 MW [1]: > 0.01%
LC50 HF [2]: > 100 µg
LC50 LH [3]: > 0.05%
LC50 CL [4]: < 0.1%
LC50 TBW E [5]: > 0.1%

Cc1ccc(N=C(OCc2ccc(F)c(Oc3ccccc3)c2)C(C)C)cc1F [Compound 354]
LC50 MW [1]: 0.0068%
LC50 HF [2]: < 100 µg
LC50 LH [3]: < 0.05%
LC50 CL [4]: > 0.1%
LC50 TBW E [5]: 0.018%

C#CC(OC(=Nc1ccc(F)c(Cl)c1)C(C)C)c1cccc(Oc2ccccc2)c1 (stereo not shown) [Compound 533, N-(3-chloro-4-fluorophenyl)-O-[1-(3-phenoxyphenyl)-2-propyn-1-yl]isobutyrimidate]
LC50 MW [1]: > 0.01%
LC50 HF [2]: 60 µg
LC50 LH [3]: > 0.05%
LC50 CL [4]: > 0.1%
LC50 TBW E [5]: > 0.1%
